{"source": "patent US10894014B2", "about": "“Orodispersible tablet containing Estetrol” (ESTETRA SPRL, priority 2015, dated 2021)", "key": {"[1]": {"assay": "Randomized, open-label, two-period, cross-over pharmacokinetic study, sublingual vs oral estetrol tablet", "type": "in vivo, healthy female volunteers", "settings": "10 mg estetrol sublingual vs oral tablet", "procedure": "A randomized, open-label, two-period, cross-over, pharmacokinetic study is conducted to compare sublingual bioavailability of 10 mg estetrol administered in one 80 mg tablet with oral availability of estetrol contained in a 83 mg tablet containing 10 mg estetrol. These tablets are administered sublingually and orally to healthy female volunteers under fasting conditions.\nTen healthy female subjects are selected on the basis of the following criteria: age of 45-65 years (inclusive), nonsmokers or past smokers (at least 6 months before dosing), body-mass index (BMI)=18.5 to 30 kg/m^2 (inclusive at the time of the screening).\nAt the start of the first and the second period of the study, between 07:00 am and 07:28 am, 5 subjects receive a single dose of the sublingual formulation of estetrol by administering one estetrol tablet (tablet weight 80 mg; 10 mg estetrol) and 5 subjects receive a single oral dose of the oral estetrol formulation by administering one estetrol tablet (tablet weight 83 mg; 10 mg estetrol), ingested together with 200 ml water. […]\nThe estetrol concentration in the collected blood samples is determined by means of HPLC/MS/MS. The concentrations of glucuronided estetrol (D-ring) in the urine samples is also determined with the help of HPLC/MS/MS."}, "[2]": {"settings": "humans, cited from earlier work"}, "estrogen receptors": {"system": "estrogen receptors", "settings": "in vitro; cited from earlier work"}, "[3]": {"molecular_target": "T1, sex hormone binding globulin (SHBG) (Homo sapiens, UniProt P04278)", "T1 sequence (P04278 30-402)": "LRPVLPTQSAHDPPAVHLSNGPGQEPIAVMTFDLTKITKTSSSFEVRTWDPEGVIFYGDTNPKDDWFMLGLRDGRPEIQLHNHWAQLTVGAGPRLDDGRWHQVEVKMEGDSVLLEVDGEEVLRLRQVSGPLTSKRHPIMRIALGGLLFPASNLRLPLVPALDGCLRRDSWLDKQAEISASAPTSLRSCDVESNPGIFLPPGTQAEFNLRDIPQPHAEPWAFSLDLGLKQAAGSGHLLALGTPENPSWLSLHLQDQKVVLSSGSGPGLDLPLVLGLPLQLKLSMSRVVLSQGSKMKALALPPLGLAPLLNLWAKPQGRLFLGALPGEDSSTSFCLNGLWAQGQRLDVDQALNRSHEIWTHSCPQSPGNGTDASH", "settings": "in vitro; cited from earlier work"}, "production of SHBG": {"system": "production of SHBG", "settings": "in vitro; cited from earlier work"}, "[4]": {"system": "vagina, uterus, body weight, bone mass, bone strength, hot flushes, ovulation", "settings": "dose-dependent; cited from earlier work"}, "DMBA mammary tumour": {"system": "DMBA mammary tumour", "settings": "extent and dose level similar to tamoxifen and to ovariectomy; cited from earlier work"}, "[5]": {"system": "human breast cancer cells", "settings": "in vitro; cited from earlier work"}}, "data": [{"smiles": "C[C@]12CC[C@@H]3c4ccc(O)cc4CC[C@H]3[C@@H]1[C@@H](O)[C@@H](O)[C@@H]2O", "note": "[estetrol, 1,3,5 (10)-estratrien-3,15α,16α,17β-tetrol]", "values": [{"measurement": "impact on a liver function parameter", "setting": "[1]", "result": "less impact on a liver function parameter"}, {"measurement": "oral bioavailability", "setting": "[2]; oral", "result": "high and dose-proportional"}, {"measurement": "terminal elimination half-life", "setting": "[2]", "result": "about 28 hours"}, {"measurement": "binding to estrogen receptors, selectivity", "setting": "estrogen receptors", "result": "binds highly selective to the estrogen receptors with preference for the ERα form"}, {"measurement": "binding to SHBG", "setting": "[3]", "result": "does not bind"}, {"measurement": "stimulation of production of SHBG", "setting": "production of SHBG", "result": "does not stimulate"}, {"measurement": "estrogenic effects in rat models", "setting": "[4]", "result": "estrogenic effects on the vagina, the uterus (both myometrium and endometrium), body weight, bone mass, bone strength, hot flushes and on ovulation (inhibition)"}, {"measurement": "tumour development", "setting": "DMBA mammary tumour", "result": "prevented tumour development"}, {"measurement": "effect in the presence of 17β-estradiol", "setting": "[5]", "result": "anti-estrogenic effect"}]}]}
